What all share (type): cell-based
One assay deals with T1, IKZF3-GFP (Homo sapiens, UniProt Q9UKT9).
T1 construct: gateway cloning of IKZF3 from a pENTR221-IKZF3(STOP-Leu) construct into the previously described pLenti6-DEST-GFP-Ires-RFP vector; expressed in transfected cells; host or cells: HEK293A cells (Invitrogen R70507), lentiviral transduction with pLenti6-IKZF3-GFP-Ires-RFP, blasticidin-selected
Description: IKZF3-GFP protein abundance flow cytometry assay in HEK293A cells. The settings on record: 24 h, Table 1. The method, then: Compounds of the invention were tested in the following cellular assays. […] TMD8 cells are BTK dependent and OCI-LY3 cells are BTK independent.
(§1) BTK-GFP and IKZF3-GFP Protein Abundance Flow Cytometry Assay in HEK293A Cells:
(§2) Degradation of BTK or IKZF3 was measured in HEK293A cells (Invitrogen R70507) expressing either BTK-GFP and RFP or IKZF3-GFP and RFP from a stably integrated bicistronic BTK-GFP-iresRFP or IKZF3-GFP-iresRFP construct, respectively. Reduction of the GFP signal measured by flow cytometry served as readout for BTK or IKZF3 degradation after degrader treatment.
(§3) Stable HEK293A-BTK-GFP-iresRFP cells were maintained in complete growth medium (DMEM high Glucose+10% FCS+1% L-Glutamine+1% NEAA+1% NaPyr.) with passaging performed twice per week. On Day 0, HEK293A-BTK-GFP-iresRFP or HEK293A-IKZF3-GFP-iresRFP and HEK293A-iresRFP cells were seeded at 10,000 cells/well in a 96-well microtiter plate in 260 μl complete medium. On Day 1, cells were treated in duplicate with 10-point 1:3 dilution series of compound using the HP D300 Digital Dispenser (Tecan). DMSO concentrations were normalized across the plate to 0.1%. On Day 2, after 24 h of incubation at 37° C., treatment media was discarded, cells rinsed with 100 ul/well PBS and then detached using 40 ul trypsin/well for 5 min. Trypsin was neutralized with 100 ul/well PBS+20% FCS). Flow cytometry was performed on the samples using the BD FACS CANTO II (Becton Dickinson). Cell identification was then performed using forward (FSC) vs. side scatter (SSC) plots. Single cell discrimination is performed using SSC-Width (SSC-W) vs. SSC-Height (SSC-H) plots. Median GFP values for 5,000 single cells are used to determine BTK levels. Median GFP values from HEK293A-iresRFP are used as a background signal and thus defining 0% BTK signal. Median GFP values from DMSO treated HEK293A-BTK-GFP-iresRFP or HEK293A-IKZF3-GFP-iresRFP are used to define 100% BTK signal for subsequent DC50 curves (concentration at 50% BTK degradation). GFP and RFP are read in the channels called FITC and PE, respectively.
(§4) Concentration response curves plotting relative reduction of the GFP signal (measured by flow cytometry) versus 10 compound concentrations (starting concentration 10 μM, 3 fold dilution steps) of the compounds allowed generation of DC50 values.
Data is shown in Table 2, in which, DC50 refers to the concentration at which 50% maximal degradation was observed; deg Amax is the extent of degradation and the value refers to the % protein remaining at the concentration at which maximum degradation is seen.
Background: A flow cytometer gives signals particle by particle.

For a further assay, the target named is T2, BTK-GFP (Homo sapiens, UniProt Q06187+Q96SW2).
T2 construct: the BTK open reading frame (ORF) was first shuttled from a pcDNA-DEST40-BTK vector (Invitrogen library ID INV_20090504v1); expressed in transfected cells; host or cells: HEK293A cells (Invitrogen R70507), lentiviral transduction with pLenti6-BTK-GFP-Ires-RFP, blasticidin-selected
T2 sequence (Q06187 whole entry): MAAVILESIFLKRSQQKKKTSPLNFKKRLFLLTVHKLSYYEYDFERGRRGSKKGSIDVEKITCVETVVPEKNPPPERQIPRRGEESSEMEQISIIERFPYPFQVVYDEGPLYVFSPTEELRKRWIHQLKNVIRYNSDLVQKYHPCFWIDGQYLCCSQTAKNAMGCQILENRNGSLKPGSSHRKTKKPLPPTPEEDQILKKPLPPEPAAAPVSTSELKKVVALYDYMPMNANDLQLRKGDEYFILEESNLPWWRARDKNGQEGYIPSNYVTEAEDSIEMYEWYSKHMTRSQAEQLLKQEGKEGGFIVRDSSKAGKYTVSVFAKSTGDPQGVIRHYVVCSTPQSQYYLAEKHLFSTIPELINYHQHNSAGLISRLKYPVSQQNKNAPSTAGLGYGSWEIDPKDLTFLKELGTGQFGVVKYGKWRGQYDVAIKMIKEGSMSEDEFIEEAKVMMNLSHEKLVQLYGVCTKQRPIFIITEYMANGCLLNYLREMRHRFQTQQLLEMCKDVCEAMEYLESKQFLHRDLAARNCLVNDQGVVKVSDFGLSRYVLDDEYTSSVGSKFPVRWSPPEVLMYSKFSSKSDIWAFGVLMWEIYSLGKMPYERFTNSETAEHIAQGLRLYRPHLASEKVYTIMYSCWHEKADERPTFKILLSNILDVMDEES
T2 sequence (Q96SW2 whole entry): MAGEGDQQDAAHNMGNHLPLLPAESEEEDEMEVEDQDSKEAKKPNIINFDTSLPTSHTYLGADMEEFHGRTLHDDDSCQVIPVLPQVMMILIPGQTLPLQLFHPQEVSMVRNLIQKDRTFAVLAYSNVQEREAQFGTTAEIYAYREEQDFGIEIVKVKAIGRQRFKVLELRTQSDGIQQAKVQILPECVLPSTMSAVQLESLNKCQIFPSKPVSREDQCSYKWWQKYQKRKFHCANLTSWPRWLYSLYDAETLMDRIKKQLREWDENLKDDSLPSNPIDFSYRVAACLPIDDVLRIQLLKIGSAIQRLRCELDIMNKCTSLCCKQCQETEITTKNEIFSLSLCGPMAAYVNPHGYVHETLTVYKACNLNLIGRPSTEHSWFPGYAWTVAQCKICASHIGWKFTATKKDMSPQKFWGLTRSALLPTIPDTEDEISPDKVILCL
T2 sequence (Q16531 whole entry partner): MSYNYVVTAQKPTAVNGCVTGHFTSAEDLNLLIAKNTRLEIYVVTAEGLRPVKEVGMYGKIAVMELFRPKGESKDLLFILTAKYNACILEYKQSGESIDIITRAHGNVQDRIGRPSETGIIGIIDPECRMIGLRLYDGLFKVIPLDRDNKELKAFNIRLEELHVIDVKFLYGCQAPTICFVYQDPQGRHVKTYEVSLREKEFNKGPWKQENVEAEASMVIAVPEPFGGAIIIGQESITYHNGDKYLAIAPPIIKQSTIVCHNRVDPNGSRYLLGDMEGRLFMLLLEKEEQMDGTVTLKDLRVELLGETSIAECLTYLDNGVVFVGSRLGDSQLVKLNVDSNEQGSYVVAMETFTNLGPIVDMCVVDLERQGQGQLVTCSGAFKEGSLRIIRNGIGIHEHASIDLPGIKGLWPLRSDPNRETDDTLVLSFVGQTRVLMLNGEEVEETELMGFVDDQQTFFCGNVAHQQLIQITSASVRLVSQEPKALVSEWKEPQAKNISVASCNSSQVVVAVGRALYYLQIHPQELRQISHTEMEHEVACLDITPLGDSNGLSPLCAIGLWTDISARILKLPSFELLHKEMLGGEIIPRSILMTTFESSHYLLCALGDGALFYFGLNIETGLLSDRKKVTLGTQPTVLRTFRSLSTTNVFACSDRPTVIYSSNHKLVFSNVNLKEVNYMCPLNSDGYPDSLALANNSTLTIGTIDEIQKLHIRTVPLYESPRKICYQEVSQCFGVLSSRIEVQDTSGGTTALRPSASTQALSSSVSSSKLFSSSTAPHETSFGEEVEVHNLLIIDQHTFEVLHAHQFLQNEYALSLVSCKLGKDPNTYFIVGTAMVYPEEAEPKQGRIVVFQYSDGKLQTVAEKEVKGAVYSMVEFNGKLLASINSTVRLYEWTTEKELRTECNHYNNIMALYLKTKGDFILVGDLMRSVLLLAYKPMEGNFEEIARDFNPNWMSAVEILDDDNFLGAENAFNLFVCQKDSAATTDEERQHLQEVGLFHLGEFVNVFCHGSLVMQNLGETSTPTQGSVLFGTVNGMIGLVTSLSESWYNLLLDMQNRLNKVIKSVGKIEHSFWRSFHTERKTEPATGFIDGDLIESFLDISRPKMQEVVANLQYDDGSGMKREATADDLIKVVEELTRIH
Description: BTK-GFP protein abundance flow cytometry assay in HEK293A cells. As to conditions: 24 h; for BTK deg Amax %: % protein remaining at concentration of maximum degradation; for DC50: concentration at which 50% maximal degradation was observed. The method, then:
(§5) Compounds of the invention were tested in the following cellular assays. The terms in Table 1 are defined as follows: DC50 refers to the concentration at which 50% maximal degradation was observed; deg Amax is the extent of degradation and the value refers to the % protein remaining at the concentration at which maximum degradation is seen; Prol GI50 refers to the proliferation data and defines the concentration at which 50% growth inhibition was observed compared to the vehicle treated control at the end of the incubation time. TMD8 cells are BTK dependent and OCI-LY3 cells are BTK independent.
as §1, §2, §3, §4

For a further assay, the system named is TMD8 cells. Description: Resazurin cell viability assay in DLBCL cells (TMD8). The settings on record: Homo sapiens, TMD8, 72 h, TMD8 cells (BTK dependent), 50% growth inhibition, read-out: TMD8 Prol GI50. As for the experimental part: as §5
(§6) Cell Viability Assay in DLBCL (Diffuse Large B-Cell Lymphoma) Cells:
(§7) The effect of the BTK compounds on cell proliferation was measured by a Resazurin (Sigma, #R7017) based cell viability assay. TMD8 (BTK compound sensitive) and OCI-LY3 (BTK compound insensitive) cells were incubated for 72 h at 37° C. and 5% CO2 with the corresponding compound. Resazurin is a non-toxic, cell-permeable substrate that is virtually non-fluorescent. Upon entering living cells, Resazurin (Sigma, #R7017) is reduced to highly fluorescent Resorufin. The metabolic activity was assessed by measuring the fluorescence signal (ex. 530 nm; em. 600 nm).
(§8) TMD8 and OCI-Ly3 cells were seeded at day 0 in triplicates at a cell density of 1×10^4 cells per 150 μl/well in a 96-well plate (Costar #3904). Additional plates were prepared, in order to assess the basal metabolic activity of both cell lines at the beginning of the experiment. For these reference plates, Resazurin (Sigma, #R7017) was added to a final concentration of 13 μg/ml 3 h post seeding and was incubated for 2 h at 37° C. and 5% CO2. Following incubation, the fluorescent signal intensity of the 96-well plates was measured on a Mithras LB940 multimode plate reader at 530/600 nm (Berthold Technologies, Germany).
(§9) In parallel, 3 h post-seeding, test-plates were treated with compound at various concentrations, or with vehicle (DMSO) alone for 3 days. The compound addition to the plates was performed by using a HP D300 digital dispenser (TECAN, Switzerland). The compounds were tested in triplicate, 8-point serial dilution (1:4), with a start concentration of 10 μM for OCI-LY3 and 1 μM for the TMD8 cells, respectively. To assess the relative proliferation of the cells, Resazurin was added to each well directly to the medium to a final concentration of 13 μg/ml. The plates were incubated for 2 h at 37° C. and 5% CO2 to result in a 72 h endpoint. Following incubation, the fluorescent signal intensity of the 96-well plates were measured on a Mithras LB940 multimode plate reader at 530/600 nm (Berthold Technologies, Germany). The formation of Resorufin dye directly correlates with the number of metabolically active cells. For each triplicate treatment the mean and standard deviation were calculated and analyzed via curve fitting software to determine the respective compound concentration resulting in 50% growth inhibition (GI50) values. For each compound GI50 values were typically determined from at least 2 entirely independent experiments.
TMD8 cells were acquired through a license agreement with Tokyo Medical and Dental University, Japan. Cells are cultivated in MEM Alpha (BioConcept, #1-23F01-I, lot. LB04262P) supplemented with 10% FCS (HyClone, GE #SH30066.03, lot AB217603), 2 mM L-Glutamine (BioConcept, #5-10K50-H, lot. LA03467P), 1% Pen/Strep (BioConcept, #4-01F00-H, lot. LB04235P).
On the technique in general: Alamar Blue is a resazurin reagent that responds to reducing activity.

The subject of another assay is OCI-LY3 cells. In words: Resazurin cell viability assay in DLBCL cells (OCI-LY3). The settings on record: Homo sapiens, OCI-Ly3, 72 h, OCI-LY3 cells (BTK independent), 50% growth inhibition, read-out: OCI-LY3 Prol GI50. As for the experimental part:
as §5, §6, §7, §8, §9
OCI-LY3 cells were acquired through a license agreement with University Health Network, Toronto, Canada. Cells are cultivated in RPMI1640 media (Gibco, #61870-010, lot. 1894759), supplemented with 10% FCS (HyClone, GE #SH30066.03, lot AB217603), 2 mM L-Glutamine (BioConcept, #5-10K50-H, lot. LA03467P), 1 mM Sodium Pyruvate (BioConcept, #5-60F00-H, lot. LB10510P), 10 mM HEPES (Gibco, #15630-056, lot. 1854074), 1% Pen/Strep (BioConcept, #4-01F00-H, lot. LB04235P).

The text below walks through data of patent publication US11541056B2, “3-hydroxy-N-(3-(7H-pyrrolo[2,3-d]pyrimidin-4-yl)phenyl)pyrrolidine-1-carboxamide derivatives” (NOVARTIS AG, priority 2018, dated 2023).

By GI50 is commonly meant the concentration giving 50% growth inhibition.

T1 sequence (Q96SW2 whole entry partner): as the sequence (Q96SW2 whole entry) above
T1 sequence (Q16531 whole entry partner): as the sequence (Q16531 whole entry partner) above
T1 sequence (Q9UKT9 whole entry): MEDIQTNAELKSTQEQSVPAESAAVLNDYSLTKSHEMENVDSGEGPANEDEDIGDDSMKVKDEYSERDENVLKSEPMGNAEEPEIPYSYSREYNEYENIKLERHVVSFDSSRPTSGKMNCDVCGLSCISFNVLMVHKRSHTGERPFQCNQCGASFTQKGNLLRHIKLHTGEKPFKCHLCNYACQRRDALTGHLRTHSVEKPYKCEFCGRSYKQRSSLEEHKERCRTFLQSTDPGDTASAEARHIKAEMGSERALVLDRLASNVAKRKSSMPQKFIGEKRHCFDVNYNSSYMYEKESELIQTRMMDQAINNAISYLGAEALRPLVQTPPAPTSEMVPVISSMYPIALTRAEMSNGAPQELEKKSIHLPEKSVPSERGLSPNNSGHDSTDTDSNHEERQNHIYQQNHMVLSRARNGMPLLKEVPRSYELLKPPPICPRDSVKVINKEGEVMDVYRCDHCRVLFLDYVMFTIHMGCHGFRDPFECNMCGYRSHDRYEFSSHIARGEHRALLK

Regarding `COc1ccc(C(=O)N2CCC(CN3CCN(Cc4ccc(-c5cc6c(-c7cc(F)cc(NC(=O)N8C[C@@H](CC(C)C)[C@H](O)C8)c7C)ncnc6[nH]5)cc4)CC3)CC2)cc1N1CCC(=O)NC1=O` [Compound 10, (3S,4R)—N-(3-(6-(4-((4-((1-(3-(2,4-Dioxotetrahydropyrimidin-1(2H)-yl)-4-methoxybenzoyl)piperidin-4-yl)methyl)piperazin-1-yl)methyl)phenyl)-7H-pyrrolo[2,3-d]pyrimidin-4-yl)-5-fluoro-2-methylphenyl)-3-hydroxy-4-isobutylpyrrolidine-1-carboxamide], the “IKZF3 deg Amax %” value at IKZF3-GFP (% protein remaining at maximum degradation) was found to be 99.3%. Besides, the results for the DC50 at IKZF3-GFP and on BTK-GFP were greater than 370 nM and 15.5 nM, respectively. Further, the “BTK deg Amax %” value on BTK-GFP turned out to be 7.4%. Also, the GI50 in the assay with TMD8 cells is 2.31 nM; in the assay with OCI-LY3 cells it was 4080 nM.

In the case of `CCOc1ccc(C(=O)N2CCC3(CCN(CCc4ccc(-c5cc6c(-c7cc(F)cc(NC(=O)N8C[C@H](CC(C)C)[C@@H](O)C8)c7C)ncnc6[nH]5)cc4)CC3)CC2)cc1N1CCC(=O)NC1=O` [Compound 16, (3R,4S)—N-(3-(6-(4-(2-(9-(3-(2,4-dioxotetrahydropyrimidin-1(2H)-yl)-4-ethoxybenzoyl)-3,9-diazaspiro[5.5]undecan-3-yl)ethyl)phenyl)-7H-pyrrolo[2,3-d]pyrimidin-4-yl)-5-fluoro-2-methylphenyl)-3-hydroxy-4-isobutylpyrrolidine-1-carboxamide], on BTK-GFP, the “BTK deg Amax %” value was determined as 19% and the DC50 was found to be 4.7 nM. Besides, in the assay on TMD8 cells, the GI50 was found to be 0.26 nM. Further, the GI50 in the assay with OCI-LY3 cells stood at 5220 nM.

`COc1ccc(C(=O)N2CCC3(CCN(CCc4ccc(-c5cc6c(-c7ccc(F)c(NC(=O)N8C[C@H](CC(C)C)[C@@H](O)C8)c7C)ncnc6[nH]5)cc4)CC3)CC2)cc1N1CCC(=O)NC1=O` [Compound 17, (3R,4S)—N-(3-(6-(4-(2-(9-(3-(2,4-dioxotetrahydropyrimidin-1(2H)-yl)-4-methoxybenzoyl)-3,9-diazaspiro[5.5]undecan-3-yl)ethyl)phenyl)-7H-pyrrolo[2,3-d]pyrimidin-4-yl)-6-fluoro-2-methylphenyl)-3-hydroxy-4-isobutylpyrrolidine-1-carboxamide]: on BTK-GFP, the “BTK deg Amax %” value was found to be 4% and the DC50 was determined as 5.5 nM. Further, the GI50 in the assay with TMD8 cells is 0.49 nM. The GI50 in the assay with OCI-LY3 cells is greater than 10000 nM.

Consider `COc1ccc(C(=O)N2CCC(OCCN3CCC(Oc4ccc(-c5cc6c(-c7cc(F)cc(NC(=O)N8C[C@H](CC(C)C)[C@@H](O)C8)c7C)ncnc6[nH]5)cc4)CC3)CC2)cc1N1CCC(=O)NC1=O` [Compound 20, (3R,4S)—N-(3-(6-(4-((1-(2-((1-(3-(2,4-Dioxotetrahydropyrimidin-1(2H)-yl)-4-methoxybenzoyl)piperidin-4-yl)oxy)ethyl)piperidin-4-yl)oxy)phenyl)-7H-pyrrolo[2,3-d]pyrimidin-4-yl)-5-fluoro-2-methylphenyl)-3-hydroxy-4-isobutylpyrrolidine-1-carboxamide], for which the “BTK deg Amax %” value on BTK-GFP stood at 2.4%. The DC50 on BTK-GFP was found to be 1.1 nM. Also, the GI50 turned out to be 0.29 nM in the assay on TMD8 cells and 3700 nM in the assay on OCI-LY3 cells.

Take `COc1ccc(C(=O)N2CCC(CCN3CCC(OCc4ccc(-c5cc6c(-c7cc(F)cc(NC(=O)N8C[C@@H](CC(C)C)[C@H](O)C8)c7C)ncnc6[nH]5)cc4)CC3)CC2)cc1N1CCC(=O)NC1=O` [Compound 21, (3S,4R)—N-(3-(6-(4-(((1-(2-(1-(3-(2,4-Dioxotetrahydropyrimidin-1 (2H)-yl)-4-methoxybenzoyl)piperidin-4-yl)ethyl)piperidin-4-yl)oxy)methyl)phenyl)-7H-pyrrolo[2,3-d]pyrimidin-4-yl)-5-fluoro-2-methylphenyl)-3-hydroxy-4-isobutylpyrrolidine-1-carboxamide]: the “BTK deg Amax %” value at BTK-GFP is reported as 4%. In addition, the DC50 at BTK-GFP is 15.6 nM. Moreover, the GI50 with TMD8 cells was 1.17 nM; in the assay with OCI-LY3 cells it was 3600 nM.
